Experiments:
TIMP-1 = assay: Quantitative RT-PCR of liver, TIMP-1 mRNA, NASH mice; format: in vivo, C57BL/6J mice; conditions: 13 weeks of age, mean ± SD, n = 8, Vehicle 7.74 ± 4.15, no significant difference
Protocol: Total RNA was extracted from liver samples using RNAiso (Takara Bio, Japan) according to the manufacturer's instructions. One μg of RNA was reverse-transcribed using a reaction mixture containing 4.4 mM MgCl2 (Roche, Switzerland), 40 U RNase inhibitor (Toyobo, Japan), 0.5 mM dNTP (Promega, USA), 6.28 μM random hexamer (Promega), 5× first strand buffer (Promega), 10 mM dithiothreitol (Invitrogen, USA) and 200 U MMLV-RT (Invitrogen) in a final volume of 20 μL. The reaction was carried out for 1 hour at 37° C., followed by 5 minutes at 99° C. Real-time PCR was performed using real-time PCR DICE and SYBR premix Taq (Takara Bio). To calculate the relative mRNA expression level, the expression of each gene was normalized to that of reference gene 36B4 (gene symbol: Rplp0). Information of PCR-primer sets and the plate layout was described in Table 1.

NASH mice [1] = assay: Serum ALT in NASH mice; format: in vivo, C57BL/6J mice; conditions: mean±SD, Vehicle 58±29, no significant difference
Protocol: Non-fasting blood glucose was measured in whole blood using Life Check (EIDIA, Japan). For serum biochemistry, blood was collected in polypropylene tubes without anticoagulant and kept at room temperature for 30 minutes, followed by at 4° C. for 1 hour. The blood samples were then centrifuged at 1,000×g for 15 minutes at 4° C. The supernatant was collected and stored at −80° C. until use. Serum ALT and TG levels were measured by FUJI DRI-CHEM 7000 (Fujifilm, Japan).

NASH mice [2] = assay: Liver weight and liver-to-body weight ratio in NASH mice; format: in vivo, C57BL/6J mice; conditions: mean±SD; for Liver-to-body weight ratio: Vehicle 8.1±1.1, no significant difference; for Mean liver weight: Vehicle 1870±418, no significant difference
Protocol: (§1) The viability, clinical signs and behavior were monitored daily. Body weight was recorded daily before drug administration. […] The animals were sacrificed by exsanguination through direct cardiac puncture under ether anesthesia (Wako Pure Chemical Industries).

[3] = Body weight and general condition of NASH mice; conditions: for Mean body weight at sacrifice / Mean body weight during the treatment period: NASH mice; for Mean body weight at sacrifice: mean±SD, Vehicle 22.9±2.9, no significant difference; for Mean body weight during the treatment period: versus vehicle group
Protocol: as §1

[4] = high dose 3 mg/kg/day s.c. infusion 9-13 wks
[5] = low dose 1 mg/kg/day s.c. infusion 9-13 wks

Compound: C[C@H]1[C@H]2N(C(=O)CN(C)N2C(=O)NCc2ccccc2)[C@@H](Cc2ccc(OP(=O)(O)O)cc2)C(=O)N1Cc1cccc2cccnc12 [Compound A, 4-(((6S,9S,9aS)-1-(benzylcarbamoyl)-2,9-dimethyl-4,7-dioxo-8-(quinolin-8-ylmethyl)octahydro-1H-pyrazino[2,1-c][1,2,4]triazin-6-yl)methyl)phenyl dihydrogen phosphate]
- TIMP-1 mRNA expression level (relative, normalized to 36B4) (TIMP-1; high dose 3 mg/kg/day s.c. infusion 9-13 wks, 3 mg/kg/day): 6.73±2.23
- TIMP-1 mRNA expression level (relative, normalized to 36B4) (TIMP-1; low dose 1 mg/kg/day s.c. infusion 9-13 wks, 1 mg/kg/day): 5.35±2.82
- Serum ALT (NASH mice [1]; [4]): 49±17 U/L
- Serum ALT (NASH mice [1]; [5]): 45±17 U/L
- Liver-to-body weight ratio (NASH mice [2]; [4]): 8.5±0.6%
- Mean liver weight (NASH mice [2]; [4]): 2024 ± 159 mg
- Liver-to-body weight ratio (NASH mice [2]; [5]): 8.0±0.8%
- Mean liver weight (NASH mice [2]; [5]): 1803 ± 219 mg
- Mean body weight at sacrifice [3, 4]: 23.7 ± 1.1 g
- Mean body weight during the treatment period ([3]; high dose 3 mg/kg/day s.c. infusion): no significant differences
- Mean body weight at sacrifice [3, 5]: 22.6 ± 2.6 g
- Mean body weight during the treatment period ([3]; low dose 1 mg/kg/day s.c. infusion): no significant differences
- General condition ([3]; any of the animals (all groups), throughout the treatment period): No deterioration

— US20160263131A1, “TREATMENT OF HEPATIC FIBROSIS USING AN INHIBITOR OF CBP/CATENIN” (priority 2013, published 2016)
